According to patent US5635510A, “Substituted pyrrolidin-3-yl-alkyl-piperidines” (Merrell Pharmaceuticals Inc., priority 1994, dated 1997):
pIC50: −log10 of the molar value.

How the values were obtained:
[1] = target: T1, human jejunal NK2 receptor (Homo sapiens, UniProt P21452); assay: Antagonism of iodinated neurokinin A binding to NK2 receptor, HSKR-1 cells (mouse 3T3 fibroblasts expressing the human jejunal NK2 receptor); conditions: for pIC50: NK-2 IC50, HSKR-1 cells, 125I-neurokinin A, mean of several experiments
T1 construct: expressed in transfected cells; host or cells: HSKR-1 cells (mouse 3T3 fibroblasts)
T1 sequence (P21452 1-398): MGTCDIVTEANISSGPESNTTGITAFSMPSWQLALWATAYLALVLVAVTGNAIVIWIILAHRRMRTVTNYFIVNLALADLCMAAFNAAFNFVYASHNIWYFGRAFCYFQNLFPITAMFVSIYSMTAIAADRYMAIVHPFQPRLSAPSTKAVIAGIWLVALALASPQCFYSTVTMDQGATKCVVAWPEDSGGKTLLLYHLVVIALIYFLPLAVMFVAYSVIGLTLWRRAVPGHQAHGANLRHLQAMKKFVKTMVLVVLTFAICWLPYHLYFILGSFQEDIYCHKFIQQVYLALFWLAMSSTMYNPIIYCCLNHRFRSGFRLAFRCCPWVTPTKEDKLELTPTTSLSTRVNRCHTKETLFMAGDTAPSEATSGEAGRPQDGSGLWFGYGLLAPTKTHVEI
Procedure: (§1) ANTAGONISM OF IODINATED TACHYKININ BINDING TO NK1 AND NK2
(§2) RECEPTORS BY PUTATIVE ANTAGONISTS
(§3) The NK1 receptor affinity of proposed tachykinin antagonists was evaluated in guinea pig lungs (Keystone Biologicals, Cleveland, OH), affinity for the NK2 receptor evaluated in HSKR-1 cells (which are mouse 3T3 fibroblasts expressing the human jejunal NK2 receptor) and NK-3 receptor affinity was evaluated in freshly collected guinea pig cerebral cortex. Tissues or cells were homogenized with a Polytron in 15 volumes of 50 mM Tris-HCl buffer (pH 7.4, 4° C.) and centrifuged. The pellet was resuspended in Tris-HCl buffer and was centrifuged; the pellet was washed twice by resuspension. The final pellet was resuspended at a concentration of 40 mg/ml for tissues (guinea pig lung and cerebral cortex) and 20 mg/ml for cells in incubation buffer and remained at room temperature for at least 15 min prior to use. Receptor binding was initiated by addition of 250 ul membrane preparation in duplicate to 0.1 nM of the following radioligands: ^125 I-Bolton Hunter Lys-3 labeled substance P; ^125 iodohistidyl-1-neurokinin A; and ^125 I-Bolton Hunter labeled Lys-4 eledoisin in a final volume of 500 ul of buffer containing 50 mM Tris-HCl (pH 7.4 at room temperature), 0.1% bovine serum albumin, 2 mM MnCl2, 40 ug/ml bacitracin, 4 μg/ml leupeptin and chymostatin, 1 μM thiorphan and various doses of the putative tachykinin antagonists. Incubations were performed at room temperature for 90 min (NK1 receptor assays) or 2 hr (NK2 and NK3 receptor assays); binding was terminated by addition of 50 mM Tris-HCl buffer (pH 7.4, 4° C.) and filtration under vacuum through GF/B filters presoaked with 0.1% polyethyleneimine (NK1 receptor assays) or 0.5% bovine serum albumin (NK2 and NK3 receptor assays). Filter bound radioactivity was quantitated in a gamma counter. Nonspecific binding was defined as binding in the presence of 1 μM substance P, neurokinin A, or eledoisin. Specific binding was calculated by subtracting nonspecific binding from total binding. Competition of iodinated SP, NKA, or eledoisin binding by test compounds or standards was expressed as a percentage of this maximum competition. IC50 values (concentration required to inhibit 50% of receptor binding) were generated for each of the test compounds by nonlinear regression using an iterative curve fitting program (GraphPAD Inplot, San Diego, Calif.).

NK1 receptor = target: T2, NK1 receptor (Cavia porcellus, UniProt P30547); assay: Antagonism of iodinated substance P binding to NK1 receptor, guinea pig lung; conditions: for pIC50: NK-1 IC50, guinea pig lung, 125I-substance P, mean of several experiments
T2 construct: evaluated in guinea pig lungs; tissue Keystone Biologicals, Cleveland, OH; host or cells: guinea pig lung
T2 sequence (P30547 whole entry): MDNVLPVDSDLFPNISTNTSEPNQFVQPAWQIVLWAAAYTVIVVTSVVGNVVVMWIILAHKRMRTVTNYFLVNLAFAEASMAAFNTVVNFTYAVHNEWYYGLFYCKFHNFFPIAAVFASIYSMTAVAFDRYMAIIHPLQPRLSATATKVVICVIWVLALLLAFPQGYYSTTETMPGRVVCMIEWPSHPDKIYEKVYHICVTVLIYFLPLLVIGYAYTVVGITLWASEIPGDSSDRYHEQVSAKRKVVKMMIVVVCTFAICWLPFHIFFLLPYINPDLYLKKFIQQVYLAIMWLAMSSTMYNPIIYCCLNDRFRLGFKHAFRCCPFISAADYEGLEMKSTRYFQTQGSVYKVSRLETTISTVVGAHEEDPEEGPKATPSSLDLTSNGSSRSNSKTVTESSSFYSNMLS
Procedure: as §1, §2, §3

Row | SMILES | pIC50 [1] | pIC50 (NK1 receptor) | affinity for NK2 receptors (in words) ([1]; HSKR-1 cells) | affinity for NK1 receptors (in words) (NK1 receptor; guinea pig lung)
1 | COc1cc(C(=O)N2CCC(CCN3CCC(C(N)=O)(c4ccccc4)CC3)(c3ccc(Cl)c(Cl)c3)C2)cc(OC)c1OC.Cl (single isomer, unassigned; (+)) [Example 20A, (+)-1-[2-[3-(3,4-dichloro-phenyl)-1-(3,4,5-trimethoxy-benzoyl)-pyrrolidin-3-yl]-ethyl]-4-phenyl-piperidine-4-carboxylic acid amide hydrochloride] | 8.10 | 8.52 |  | 
2 | COc1cc(C(=O)N2CCC(CCN3CCC(C(N)=O)(c4ccccc4)CC3)(c3ccc(Cl)c(Cl)c3)C2)cc(OC)c1OC (stereo not drawn) [Example 3, 1-[2-[3-(3,4-dichloro-phenyl)-1-(3,4,5-trimethoxy-benzoyl)-pyrrolidin-3-yl]-ethyl]-4-phenyl-piperidine-4-carboxylic acid amide] |  |  | high affinity | high affinity
3 | COc1cc(C(=O)N2CCC(CCN3CCC(C(N)=O)(c4ccccc4)CC3)(c3ccc(Cl)c(Cl)c3)C2)cc(OC)c1OC (single isomer, unassigned; (+)) [Example 20, (+)-1-[2-[3-(3,4-dichloro-phenyl)-1-(3,4,5-trimethoxy-benzoyl)-pyrrolidin-3-yl]-ethyl]-4-phenylpiperidine-4-carboxylic acid amide] | 8.08 | 8.33 |  | 
